# From article PMC11019550, “Potent Inhibition of E. coli DXP Synthase by a gem-Diaryl Bisubstrate Analog” (ACS Infectious Diseases, 2024)
# Legend:
# R478A EcDXPS = biological target: T1, R478A EcDXPS (Escherichia coli, UniProt P77488, R478A); assay: Circular dichroism titration (PLThDP formation, apparent KD) on R478A EcDXPS; assay type: binding
# T1 construct: made in house
# Procedure: CD titrations of 8 and 10 onto WT, R99A, and R478A EcDXPS variants were conducted at 25 °C under aerobic conditions in 1.5 mL solutions containing 30 μM EcDXPS in 50 mM HEPES pH 8, 100 mM NaCl, 1 mM MgCl2, and 0.2 mM ThDP. Scans were obtained from 280 to 400 nm with a 0.5 s averaging time and 1 nm step following a titration of inhibitor (8: 0.25–30 μM on WT, 0.5–30 μM on R99A and R478A; 10 2.5–30 μM on WT, R99A, and R478A), with a 5 min preincubation of inhibitor with DXPS prior to scanning. […] The CD signals at 294 nm determined from the difference spectra obtained by subtracting the signal of E-ThDP at 294 nm were plotted as a function of [inhibitor] and fit to (1) the quadratic equation described in eq 2 (8 on WT DXPS), where E is the concentration of DXPS taking into account stoichiometric binding and CDmax is the maximal CD signal, or (2) a one-site specific binding curve (all other experiments) using GraphPad Prism Version 9 to calculate an apparent KD. Experiments were conducted in triplicate and the standard error was calculated. [drawing 2] 2
# At the conclusion of the titration described above, the CD signal at 313 nm (previously characterized for LThDP) was recorded. Pyruvate (1 mM) was then added to the mixture, and a CD scan of the resulting solution was conducted as described above, to detect shifts in the CD spectrum that may correlate to LThDP formation. Experiments were conducted in triplicate.
# WT EcDXPS = biological target: T2, WT EcDXPS (Escherichia coli, UniProt P77488); assay: Time-dependent inhibition, reaction progress curves on WT EcDXPS; assay type: biochemical; settings: 8 at 400 or 800 nM, 10 at 1 or 100 μM
# T2 construct: made in house
# Procedure: To determine if 8 is also a slow-onset inhibitor of DXPS, reaction progress was monitored upon simultaneous addition of substrates (pyruvate and D-GAP) in the presence or absence of inhibitor. In the absence of inhibitor, the reaction progress curve is linear. […] To assess the importance of the carboxyl group of 8, we evaluated descarboxy analog 10 in the same manner.
# EcDXPS (100 nM) and IspC (2 μM) were preincubated in enzyme reaction buffer (100 mM HEPES pH 8, 2 mM MgCl2, 5 mM NaCl, 1 mM ThDP, and 200 μM NADPH) with 250 μM D-GAP for 10 min at 25 °C. The reaction was initiated by the addition of pyruvate (1 mM) and inhibitor (400 nM and 800 nM 8; 1 μM and 100 μM 10). The reaction mixture was incubated at 25 °C, and the absorbance of NADPH at 340 nm was monitored. The change in the absorbance of NADPH over time was used to calculate [DXP] (μM) produced over time. Experiments were performed in triplicate.
# EcR99A DXPS = biological target: T3, EcR99A DXPS (Escherichia coli, UniProt P77488, R99A); assay: Time-dependent inhibition, reaction progress curves on EcR99A; assay type: biochemical; settings: 8 at 700 nM or 200 μM
# T3 construct: made in house
# Procedure: Figure S8. Replicates of reaction progress curves for DXP formation on EcR99A in the presence or absence of 8. Reactions were initiated by simultaneous addition of substrates (780 µM pyruvate and 2400 µΜ D-GAP) in the presence or absence of 8 (700 nM or 200 µM) at 25 °C. Reaction progress was measured using the DXPS-IspC coupled assay. Experiments were performed in […]
# Figure S9. Representative CD traces illustrating behavior of the CD signal corresponding to PLThDP formed from 8 on WT and EcDXPS variants. A) CD traces showing lack of a significant shift in CD signal following addition of pyruvate (1 mM, red trace) to E-PLThDP formed from 8 (blue trace) on WT B) Observed shift toward a LThDP-like CD signal following addition EcDXPS. of pyruvate to E-PLThDP formed from 8 on EcR99A DXPS. C) Observed shift toward a LThDP-like CD signal following addition of pyruvate to E-PLThDP formed from 8 on EcR478A DXPS. […]
# EcDXPS = biological target: T4, EcDXPS (Escherichia coli, UniProt P77488); assay: DXPS quaternary structure by native PAGE and analytical gel filtration
# T4 construct: made in house
# Procedure: EcDXPS (20 μM) in buffer (2 mM MgCl2, 5 mM NaCl, 1 mM ThDP, 100 mM HEPES pH 8) was preincubated with 8 ([…]) or no inhibitor for 30 min at 25 °C. Samples were then diluted 2-fold with 2× loading dye (100 mM Tris HCl pH 8, 20% glycerol, 200 mM dithiothreitol (DTT), 0.01% bromophenol blue). Samples (15 μL) were then loaded on a 7.5% PAGE gel. Gel electrophoresis was conducted at 4 °C for 30 min at 120 V, followed by 3 h at 150 V. Protein bands were stained with Protostain Blue. Experiments were performed in triplicate.
# Analytical gel filtration was performed on an AKTA-GO FPLC system held at 4 °C fitted with a Cytiva Superdex 200 Increase 5/150 GL column. A 200 μL solution containing 29 μM EcDXPS in 25 mM HEPES, pH 8, 100 mM NaCl, 1 mM MgCl2, 1% glycerol, 10 μM ThDP, and 29 μM 8 or no inhibitor was centrifuged at 13,000 rpm for 10 min to remove particulates. The resulting supernatant was loaded into a 10 μL loop attached to the FPLC via gastight syringes. […] DXPS was analyzed by isocratic elution from the column at a flow of 0.15 mL/min with 1.5 column volumes (4.5 mL). The dimer/tetramer ratio was calculated from the peak area (mL mAu) of the dimer (1.7 mL retention) peak divided by the peak area (mL mAu) of the tetramer (1.4 mL retention) peak. […]
smiles,measurement,setting,value
CC(=O)P(=O)(O)OCCc1cn(C(Cc2ccccc2)(Cc2ccccc2)C(=O)O)nn1 [Compound 8],Kd,R478A EcDXPS,11 ± 4 µM
same,change in PLThDP CD signal upon addition of pyruvate,R478A EcDXPS; R478A-PLThDP complex,shift in the CD profile toward the characteristic LThDP signal
same,time dependence of inhibition (progress curve for DXP formation),WT EcDXPS,time dependence of inhibition
same,time dependence of inhibition (progress curve for DXP formation),EcR99A DXPS,loss of time-dependent behavior
same,effect on dimer/tetramer ratio (analytical gel filtration),"EcDXPS; 29 μM EcDXPS, 29 μM 8",small but statistically significant decrease in the dimer/tetramer ratio
same,effect on EcDXPS oligomeric state (native PAGE),"EcDXPS; EcDXPS 20 μM, incubation with 8",induce the formation of higher-order enzyme oligomers
